# Data from US9669034B2, “4-aryl-N-phenyl-1,3,5-triazin-2-amines containing a sulfoximine group” (BAYER INTELLECTUAL PROPERTY GMBH, priority 2011, dated 2017).
# Where two headings read alike, the source gives them in different places.
# What was measured:
# [1] = target: CDK9/CycT1 (Homo sapiens (Human), UniProt P50750); experiment: CDK9/CycT1 kinase assay (TR-FRET); assay type: biochemical; conditions: Method 1
# Method in brief: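 TR-FRET read-out of kinase inhibition, with a biotin-Ttds-tagged peptide as substrate. Enzyme: human CDK9 and CycT1, full-length with His tags, produced in insect cells and purified on Ni-NTA.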
# [2] = target: CDK2/CycE (Homo sapiens (Human), UniProt P24941); experiment: CDK2/CycE kinase assay (TR-FRET); assay type: biochemical; conditions: Method 2
# Method in brief: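 TR-FRET measurement of inhibition of phosphorylation of a biotinylated peptide substrate. Enzyme complex consisted of human CDK2 and CycE, each as a GST fusion made in Sf9 cells and purified over glutathione-Sepharose.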
# [3] = tested on: HeLa human cervical tumour cells; experiment: Proliferation assay (crystal violet), HeLa; assay type: cell-based; conditions: Method 3, read-out: Inhibition of HeLa cell proliferation, IC50
# Method in brief: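 First, plate 3000 (NCI-H460, HeLa), 5000 (HeLa-MaTu-ADR) or 1500 (Caco-2) cells per well; next day, fix and stain a reference plate while the others get fresh medium containing compound at […] with 0.5% DMSO; after 4 days, fix, stain with crystal violet and read at 595 nm.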
# [4] = tested on: HeLa-MaTu-ADR, multidrug-resistant human cervical carcinoma cells; experiment: Proliferation assay (crystal violet), HeLa-MaTu-ADR; assay type: cell-based; conditions: Method 3, read-out: Inhibition of HeLa/MaTu/ADR cell proliferation, IC50
# Procedure: (§1) Cultivated tumour cells (NCI-H460, human non-small cell lung carcinoma cells, ATCC HTB-177; DU145, hormone-independent human prostate carcinoma cells, ATCC HTB-81; HeLa-MaTu, human cervical carcinoma cells, EPO-GmbH, Berlin; HeLa-MaTu-ADR, multidrug-resistant human cervical carcinoma cells, EPO-GmbH, Berlin; HeLa human cervical tumour cells, ATCC CCL-2; Caco-2 human colorectal carcinoma, ATCC HTB-37; B16F10 mouse melanoma cells, ATCC CRL-6475) were plated at a density of 5000 cells/well (DU145, HeLa-MaTu-ADR), 3000 cells/well (NCI-H460, HeLa-MaTu, HeLa), 1500 cells/well (Caco-2), or 1000 cells/well (B16 F10) in a 96-well multititer plate in 200 μL of their respective growth medium supplemented 10% fetal calf serum. After 24 hours, the cells of one plate (zero-point plate) were stained with crystal violet (see below), while the medium of the other plates was replaced by fresh culture medium (200 μL), to which the test substances were added in various concentrations (0 M, as well as in the range of […]; the final concentration of the solvent dimethylsulfoxide was 0.5%). The cells were incubated for 4 days in the presence of test substances. Cell proliferation was determined by staining the cells with crystal violet: the cells were fixed by adding 20 μL/measuring point of an 11% glutaric aldehyde solution for 15 minutes at room temperature. After three washing cycles of the fixed cells with water, the plates were dried at room temperature. The cells were stained by adding 100 μL/measuring point of a 0.1% crystal violet solution (pH 3.0). After three washing cycles of the stained cells with water, the plates were dried at room temperature. The dye was dissolved by adding 100 μL/measuring point of a 10% acetic acid solution. The absorbance was determined by photometry at a wavelength of 595 nm. The change of cell number, in percent, was calculated by normalization of the measured values to the absorbance values of the zero-point plate (=0%) and the absorbance of the untreated (0 M) cells (=100%). The IC50 values were determined by means of a 4 parameter fit.
# [5] = tested on: NCI-H460, human non-small cell lung carcinoma cells; experiment: Proliferation assay (crystal violet), NCI-H460; assay type: cell-based; conditions: Method 3, read-out: Inhibition of NCI-H460 cell proliferation, IC50
# Procedure: as §1
# [6] = tested on: DU145, hormone-independent human prostate carcinoma cells; experiment: Proliferation assay (crystal violet), DU145; assay type: cell-based; conditions: Method 3, read-out: Inhibition of DU145 cell proliferation, IC50
# Procedure: as §1
# [7] = tested on: Caco-2 human colorectal carcinoma; experiment: Proliferation assay (crystal violet), Caco-2; assay type: cell-based; conditions: Method 3, read-out: Inhibition of Caco-2 cell proliferation, IC50
# Procedure: as §1
# [8] = tested on: B16F10 mouse melanoma cells; experiment: Proliferation assay (crystal violet), B16F10; assay type: cell-based; conditions: Method 3, read-out: Inhibition of B16F10 cell proliferation, IC50
# Procedure: as §1
# [9] = Homo sapiens, NCI-H460, NCI-H460 cells
# [10] = Homo sapiens, DU-145, DU145 cells
# [11] = Homo sapiens, Caco-2, Caco-2 cells
# [12] = Mus musculus, B16-F10, B16F10 cells
# Sequence of CDK9/CycT1 (P50750 whole entry): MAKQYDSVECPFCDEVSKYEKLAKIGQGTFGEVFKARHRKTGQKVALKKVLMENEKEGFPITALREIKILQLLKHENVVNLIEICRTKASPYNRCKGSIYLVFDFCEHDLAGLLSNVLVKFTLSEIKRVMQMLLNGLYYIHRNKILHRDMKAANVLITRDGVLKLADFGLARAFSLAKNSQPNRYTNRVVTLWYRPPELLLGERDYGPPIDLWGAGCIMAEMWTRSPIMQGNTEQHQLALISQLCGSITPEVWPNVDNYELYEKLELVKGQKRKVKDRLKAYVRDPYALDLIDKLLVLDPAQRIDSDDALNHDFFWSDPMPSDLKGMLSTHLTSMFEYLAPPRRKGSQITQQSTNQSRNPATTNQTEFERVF
# Sequence of CDK9/CycT1 (O60563 whole entry partner): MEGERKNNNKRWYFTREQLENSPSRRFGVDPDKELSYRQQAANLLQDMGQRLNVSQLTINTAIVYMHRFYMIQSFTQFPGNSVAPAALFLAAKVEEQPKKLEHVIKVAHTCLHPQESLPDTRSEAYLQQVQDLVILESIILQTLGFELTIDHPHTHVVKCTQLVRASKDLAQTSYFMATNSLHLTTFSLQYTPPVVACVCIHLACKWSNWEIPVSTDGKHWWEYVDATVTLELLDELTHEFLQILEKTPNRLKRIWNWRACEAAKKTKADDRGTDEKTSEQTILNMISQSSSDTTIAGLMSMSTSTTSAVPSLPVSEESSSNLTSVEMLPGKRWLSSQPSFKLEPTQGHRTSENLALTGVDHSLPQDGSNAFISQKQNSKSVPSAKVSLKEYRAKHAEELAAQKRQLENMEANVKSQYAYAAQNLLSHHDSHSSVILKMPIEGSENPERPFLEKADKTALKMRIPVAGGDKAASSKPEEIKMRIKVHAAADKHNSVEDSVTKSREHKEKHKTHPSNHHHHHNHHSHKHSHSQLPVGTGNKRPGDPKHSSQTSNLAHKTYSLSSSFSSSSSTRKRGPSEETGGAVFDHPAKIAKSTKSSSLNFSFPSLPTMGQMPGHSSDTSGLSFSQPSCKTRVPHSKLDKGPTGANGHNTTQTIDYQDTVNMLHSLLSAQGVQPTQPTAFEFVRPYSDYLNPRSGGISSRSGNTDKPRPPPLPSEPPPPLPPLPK
IC50 [1],IC50 [2],"IC50 ([3]; Homo sapiens, HeLa)","IC50 ([4]; Homo sapiens, HeLa)","IC50 [5, 9]","IC50 [6, 10]","IC50 [7, 11]","IC50 [8, 12]",IC50 [3],IC50 [4],IC50 ([5]; NCI-H460 cells),IC50 ([6]; DU145 cells),IC50 ([7]; Caco-2 cells),IC50 ([8]; B16F10 cells),SMILES
3 nM,180 nM,140 nM,260 nM,120 nM,120 nM,150 nM,130 nM,–,–,–,–,–,–,"CS(=N)(=O)Cc1cccc(Nc2ncnc(-c3ccc(F)cc3OCc3cccc(C#N)c3)n2)c1 (racemic) [Example 98, (rac)-3-({5-Fluoro-2-[4-({3-[(S-methylsulfonimidoyl)methyl]phenyl}amino)-1,3,5-triazin-2-yl]phenoxy}methyl)benzonitrile]"
2 nM,250 nM,120 nM,180 nM,150 nM,120 nM,230 nM,200 nM,–,–,–,–,–,–,"C=C(C)COc1cc(F)ccc1-c1ncnc(Nc2cccc(CS(C)(=N)=O)c2)n1 (racemic) [Example 99, (rac)-4-{4-Fluoro-2-[(2-methylprop-2-en-1-yl)oxy]phenyl}-N-{3-[(S-methylsulfonimidoyl)methyl]phenyl}-1,3,5-triazin-2-amine]"
4 nM,500 nM,330 nM,350 nM,360 nM,340 nM,240 nM,340 nM,–,–,–,–,–,–,"CS(=N)(=O)Cc1cccc(Nc2ncnc(-c3ccc(F)cc3OCc3cc(F)cc(F)c3F)n2)c1 (racemic) [Example 101, (rac)-4-{4-Fluoro-2-[(2,3,5-trifluorobenzyl)oxy]phenyl}-N-{3-[(S-methylsulfonimidoyl)methyl]phenyl}-1,3,5-triazin-2-amine]"
7 nM,800 nM,340 nM,140 nM,150 nM,95 nM,160 nM,140 nM,–,–,–,–,–,–,"C/C=C\COc1cc(F)ccc1-c1ncnc(Nc2cccc(CS(C)(=N)=O)c2)n1 (racemic) [Example 102, (rac)-4-{2-[(2Z)-But-2-en-1-yloxy]-4-fluorophenyl}-N-{3-[(S-methylsulfonimidoyl)methyl]phenyl}-1,3,5-triazin-2-amine]"
2 nM,54 nM,110 nM,240 nM,110 nM,120 nM,150 nM,120 nM,–,–,–,–,–,–,"CS(=N)(=O)Cc1cccc(Nc2ncnc(-c3ccc(F)cc3OCc3cc(F)c(F)c(F)c3)n2)c1 (racemic) [Example 104, (rac)-4-{4-Fluoro-2-[(3,4,5-trifluorobenzyl)oxy]phenyl}-N-{3-[(S-methylsulfonimidoyl)methyl]phenyl}-1,3,5-triazin-2-amine]"
3 nM,140 nM,110 nM,71 nM,130 nM,120 nM,81 nM,140 nM,–,–,–,–,–,–,"COc1cc(F)ccc1-c1ncnc(Nc2cc(F)c(F)c(CS(C)(=O)=NC#N)c2)n1 (racemic) [Example 105, (rac)-[(2,3-Difluoro-5-{[4-(4-fluoro-2-methoxyphenyl)-1,3,5-triazin-2-yl]amino}benzyl)(methyl)-oxido-λ^6-sulfanylidene]cyanamide]"
4 nM,360 nM,230 nM,340 nM,450 nM,280 nM,500 nM,300 nM,–,–,–,–,–,–,"CCS(=O)(Cc1cccc(Nc2ncnc(-c3ccc(F)cc3OC)n2)c1)=NC#N (racemic) [Example 107, (rac)-[Ethyl(3-{[4-(4-fluoro-2-methoxyphenyl)-1,3,5-triazin-2-yl]amino}benzyl)oxido-λ^6-sulfanylidene]cyanamide]"
3 nM,250 nM,100 nM,170 nM,270 nM,110 nM,220 nM,130 nM,–,–,–,–,–,–,"COc1cc(F)ccc1-c1ncnc(Nc2cc(C)cc(CS(C)(=O)=NC#N)c2)n1 (racemic) [Example 111, (rac)-[(3-{[4-(4-Fluoro-2-methoxyphenyl)-1,3,5-triazin-2-yl]amino}-5-methylbenzyl)(methyl)oxido-λ^6-sulfanylidene]cyanamide]"
4 nM,730 nM,330 nM,390 nM,320 nM,300 nM,350 nM,320 nM,–,–,–,–,–,–,"C=C(CO)COc1cc(F)ccc1-c1ncnc(Nc2cccc(CS(C)(=N)=O)c2)n1 (racemic) [Example 112, (rac)-2-({5-Fluoro-2-[4-({3-[(S-methylsulfonimidoyl)methyl]phenyl}amino)-1,3,5-triazin-2-yl]phenoxy}methyl)prop-2-en-1-ol]"
4 nM,560 nM,350 nM,270 nM,340 nM,340 nM,430 nM,340 nM,–,–,–,–,–,–,"CS(=N)(=O)Cc1cccc(Nc2ncnc(-c3ccc(F)cc3OCc3ccc(F)cc3)n2)c1 (single isomer, unassigned) [Example 56.a, 4-{4-Fluoro-2-[(4-fluorobenzyl)oxy]phenyl}-N-{3-[(S-methylsulfonimidoyl)methyl]phenyl}-1,3,5-triazin-2-amine]"
5 nM,560 nM,–,–,–,–,–,–,540 nM,540 nM,470 nM,400 nM,540 nM,390 nM,"CS(=N)(=O)Cc1cccc(Nc2ncnc(-c3ccc(F)cc3OCc3ccc(F)cc3)n2)c1 (single isomer, unassigned) [Example 56.b, 4-{4-Fluoro-2-[(4-fluorobenzyl)oxy]phenyl}-N-{3-[(S-methylsulfonimidoyl)methyl]phenyl}-1,3,5-triazin-2-amine]"
6 nM,230 nM,100 nM,120 nM,160 nM,120 nM,130 nM,110 nM,–,–,–,–,–,–,"COc1cc(F)ccc1-c1ncnc(Nc2cc(F)cc(CS(C)(=O)=NC#N)c2)n1 (single isomer, unassigned) [Example 71, [(3-Fluoro-5-{[4-(4-fluoro-2-methoxyphenyl)-1,3,5-triazin-2-yl]amino}benzyl)(methyl)oxido-λ^6-sulfanylidene]cyanamide]"
5 nM,240 nM,–,–,–,–,–,–,71 nM,120 nM,160 nM,110 nM,190 nM,160 nM,"COc1cc(F)ccc1-c1ncnc(Nc2cc(F)cc(CS(C)(=O)=NC#N)c2)n1 (single isomer, unassigned) [Example 72, [(3-Fluoro-5-{[4-(4-fluoro-2-methoxyphenyl)-1,3,5-triazin-2-yl]amino}benzyl)(methyl)oxido-λ^6-sulfanylidene]cyanamide]"
